Laboratory results from ChEMBL document CHEMBL3885881, “DrugMatrix”.

Species on record: Rattus norvegicus
Assay: DrugMatrix - Regimen: Daily Repeat
Type: toxicity, organism-based, Sprague-Dawley
Design: regimen Daily Repeat, gender Male, age 6-8 weeks
Conditions: in vivo, po, route oral GAVAGE, vehicle .5 % CMC; for ABSOLUTE BASOPHIL / ABSOLUTE EOSINOPHIL / ABSOLUTE LYMPHOCYTE / ABSOLUTE MONOCYTE / ABSOLUTE SEGMENTED NEUTROPHIL / BASOPHIL / EOSINOPHIL / ERYTHROCYTE COUNT / HEMATOCRIT / HEMOGLOBIN / LEUKOCYTE COUNT / LYMPHOCYTE / MEAN CORPUSCULAR HEMOGLOBIN / MEAN CORPUSCULAR HEMOGLOBIN CONCENTRATION / MEAN CORPUSCULAR VOLUME / MONOCYTE / NEUTROPHIL / NUCLEATED RED BLOOD CELLS / PLATELET COUNT: tissue Blood; for ALANINE AMINOTRANSFERASE / ALBUMIN / ALKALINE PHOSPHATASE / ASPARTATE AMINOTRANSFERASE / BLOOD UREA NITROGEN / CARBON DIOXIDE / CHLORIDE / CHOLESTEROL / CREATINE PHOSPHOKINASE / CREATININE / GLUCOSE / LACTATE DEHYDROGENASE / LIPASE / PHOSPHORUS / POTASSIUM / SODIUM / TOTAL BILIRUBIN / TOTAL PROTEIN / URIC ACID: tissue Plasma
[1] = 170 mg/kg, 72 h, dose level Low, time 3 day
[2] = 170 mg/kg, 120 h, dose level Low, time 5 day
[3] = 1700 mg/kg, 72 h, dose level High, time 3 day
[4] = 1700 mg/kg, 120 h, dose level High, time 5 day

O=C(O)c1ccccc1 [BENZOIC ACID]
ABSOLUTE BASOPHIL [1]: 0 CELLS/uL | ABSOLUTE EOSINOPHIL [1]: 0 CELLS/uL | ABSOLUTE LYMPHOCYTE [1]: 11616 CELLS/uL | ABSOLUTE MONOCYTE [1]: 0 CELLS/uL | ABSOLUTE SEGMENTED NEUTROPHIL [1]: 1417.33 CELLS/uL | BASOPHIL [1]: 0% | EOSINOPHIL [1]: 0% | ERYTHROCYTE COUNT [1]: 5.44 x10E6/uL | HEMATOCRIT [1]: 34.03% | HEMOGLOBIN [1]: 13.07 G/DL | LEUKOCYTE COUNT [1]: 13.03 x10E3/uL | LYMPHOCYTE [1]: 89.33% | MEAN CORPUSCULAR HEMOGLOBIN [1]: 24.03 pg | MEAN CORPUSCULAR HEMOGLOBIN CONCENTRATION [1]: 38.4 G/DL | MEAN CORPUSCULAR VOLUME [1]: 62.6 fL | MONOCYTE [1]: 0% | NEUTROPHIL [1]: 10.67% | NUCLEATED RED BLOOD CELLS [1]: 0 /100WBC | PLATELET COUNT [1]: 1319.33 x10E3/uL | ALANINE AMINOTRANSFERASE [1]: 59.67 u/L | ALBUMIN [1]: 4.13 G/DL | ALKALINE PHOSPHATASE [1]: 380 u/L | ASPARTATE AMINOTRANSFERASE [1]: 88 u/L | BLOOD UREA NITROGEN [1]: 17 mg/dL | CARBON DIOXIDE [1]: 29.33 mmol/L | CHLORIDE [1]: 100.67 MEQ/L | CHOLESTEROL [1]: 99 mg/dL | CREATINE PHOSPHOKINASE [1]: 286 u/L | CREATININE [1]: 0.23 mg/dL | GLUCOSE [1]: 150 mg/dL | LACTATE DEHYDROGENASE [1]: 280 u/L | LIPASE [1]: 10 u/L | PHOSPHORUS [1]: 13.27 mg/dL | POTASSIUM [1]: 6.52 MEQ/L | SODIUM [1]: 146.37 MEQ/L | TOTAL BILIRUBIN [1]: 0.17 mg/dL | TOTAL PROTEIN [1]: 5.97 G/DL | URIC ACID [1]: 1.6 mg/dL | ABSOLUTE BASOPHIL [2]: 0 CELLS/uL | ABSOLUTE EOSINOPHIL [2]: 64 CELLS/uL | ABSOLUTE LYMPHOCYTE [2]: 17040 CELLS/uL | ABSOLUTE MONOCYTE [2]: 0 CELLS/uL | ABSOLUTE SEGMENTED NEUTROPHIL [2]: 1696 CELLS/uL | BASOPHIL [2]: 0% | EOSINOPHIL [2]: 0.33% | ERYTHROCYTE COUNT [2]: 5.48 x10E6/uL | HEMATOCRIT [2]: 35.33% | HEMOGLOBIN [2]: 13.8 G/DL | LEUKOCYTE COUNT [2]: 18.8 x10E3/uL | LYMPHOCYTE [2]: 90.67% | MEAN CORPUSCULAR HEMOGLOBIN [2]: 25.23 pg | MEAN CORPUSCULAR HEMOGLOBIN CONCENTRATION [2]: 39.07 G/DL | MEAN CORPUSCULAR VOLUME [2]: 64.5 fL | MONOCYTE [2]: 0% | NEUTROPHIL [2]: 9% | NUCLEATED RED BLOOD CELLS [2]: 0 /100WBC | PLATELET COUNT [2]: 1165 x10E3/uL | ALANINE AMINOTRANSFERASE [2]: 57.33 u/L | ALBUMIN [2]: 4.23 G/DL | ALKALINE PHOSPHATASE [2]: 352 u/L | ASPARTATE AMINOTRANSFERASE [2]: 96.67 u/L | BLOOD UREA NITROGEN [2]: 15.67 mg/dL | CARBON DIOXIDE [2]: 24 mmol/L | CHLORIDE [2]: 103.67 MEQ/L | CHOLESTEROL [2]: 79 mg/dL | CREATINE PHOSPHOKINASE [2]: 445 u/L | CREATININE [2]: 0.21 mg/dL | GLUCOSE [2]: 164.67 mg/dL | LACTATE DEHYDROGENASE [2]: 554.67 u/L | LIPASE [2]: 9.67 u/L | PHOSPHORUS [2]: 12.87 mg/dL | POTASSIUM [2]: 6.28 MEQ/L | SODIUM [2]: 144.9 MEQ/L | TOTAL BILIRUBIN [2]: 0.23 mg/dL | TOTAL PROTEIN [2]: 6.17 G/DL | URIC ACID [2]: 2.2 mg/dL | ABSOLUTE BASOPHIL [3]: 0 CELLS/uL | ABSOLUTE EOSINOPHIL [3]: 95.33 CELLS/uL | ABSOLUTE LYMPHOCYTE [3]: 13599.67 CELLS/uL | ABSOLUTE MONOCYTE [3]: 51.33 CELLS/uL | ABSOLUTE SEGMENTED NEUTROPHIL [3]: 1753.67 CELLS/uL | BASOPHIL [3]: 0% | EOSINOPHIL [3]: 0.67% | ERYTHROCYTE COUNT [3]: 6 x10E6/uL | HEMATOCRIT [3]: 35.93% | HEMOGLOBIN [3]: 14.17 G/DL | LEUKOCYTE COUNT [3]: 15.5 x10E3/uL | LYMPHOCYTE [3]: 87.67% | MEAN CORPUSCULAR HEMOGLOBIN [3]: 23.6 pg | MEAN CORPUSCULAR HEMOGLOBIN CONCENTRATION [3]: 39.43 G/DL | MEAN CORPUSCULAR VOLUME [3]: 59.9 fL | MONOCYTE [3]: 0.33% | NEUTROPHIL [3]: 11.33% | NUCLEATED RED BLOOD CELLS [3]: 0 /100WBC | PLATELET COUNT [3]: 1304 x10E3/uL | ALANINE AMINOTRANSFERASE [3]: 84.67 u/L | ALBUMIN [3]: 4.3 G/DL | ALKALINE PHOSPHATASE [3]: 341.67 u/L | ASPARTATE AMINOTRANSFERASE [3]: 125.33 u/L | BLOOD UREA NITROGEN [3]: 16 mg/dL | CARBON DIOXIDE [3]: 30.67 mmol/L | CHLORIDE [3]: 97.33 MEQ/L | CHOLESTEROL [3]: 63.67 mg/dL | CREATINE PHOSPHOKINASE [3]: 240.33 u/L | CREATININE [3]: 0.2 mg/dL | GLUCOSE [3]: 149 mg/dL | LACTATE DEHYDROGENASE [3]: 314.33 u/L | LIPASE [3]: 9.33 u/L | PHOSPHORUS [3]: 13.87 mg/dL | POTASSIUM [3]: 6.31 MEQ/L | SODIUM [3]: 144.83 MEQ/L | TOTAL BILIRUBIN [3]: 0.23 mg/dL | TOTAL PROTEIN [3]: 5.73 G/DL | URIC ACID [3]: 1.6 mg/dL | ABSOLUTE BASOPHIL [4]: 0 CELLS/uL | ABSOLUTE EOSINOPHIL [4]: 54.33 CELLS/uL | ABSOLUTE LYMPHOCYTE [4]: 15272.67 CELLS/uL | ABSOLUTE MONOCYTE [4]: 230 CELLS/uL | ABSOLUTE SEGMENTED NEUTROPHIL [4]: 2109.67 CELLS/uL | BASOPHIL [4]: 0% | EOSINOPHIL [4]: 0.33% | ERYTHROCYTE COUNT [4]: 5.71 x10E6/uL | HEMATOCRIT [4]: 34.87% | HEMOGLOBIN [4]: 14.07 G/DL | LEUKOCYTE COUNT [4]: 17.67 x10E3/uL | LYMPHOCYTE [4]: 86.33% | MEAN CORPUSCULAR HEMOGLOBIN [4]: 24.67 pg | MEAN CORPUSCULAR HEMOGLOBIN CONCENTRATION [4]: 40.33 G/DL | MEAN CORPUSCULAR VOLUME [4]: 61.07 fL | MONOCYTE [4]: 1.33% | NEUTROPHIL [4]: 12% | NUCLEATED RED BLOOD CELLS [4]: 0 /100WBC | PLATELET COUNT [4]: 1192 x10E3/uL | ALANINE AMINOTRANSFERASE [4]: 71 u/L | ALBUMIN [4]: 4.37 G/DL | ALKALINE PHOSPHATASE [4]: 303 u/L | ASPARTATE AMINOTRANSFERASE [4]: 113.33 u/L | BLOOD UREA NITROGEN [4]: 18.67 mg/dL | CARBON DIOXIDE [4]: 27.67 mmol/L | CHLORIDE [4]: 103.33 MEQ/L | CHOLESTEROL [4]: 67.33 mg/dL | CREATINE PHOSPHOKINASE [4]: 298.67 u/L | CREATININE [4]: 0.19 mg/dL | GLUCOSE [4]: 164.33 mg/dL | LACTATE DEHYDROGENASE [4]: 269.33 u/L | LIPASE [4]: 10 u/L | PHOSPHORUS [4]: 14 mg/dL | POTASSIUM [4]: 6.25 MEQ/L | SODIUM [4]: 149.6 MEQ/L | TOTAL BILIRUBIN [4]: 0.2 mg/dL | TOTAL PROTEIN [4]: 5.8 G/DL | URIC ACID [4]: 1.67 mg/dL
